Results: US5668182A, “Method of calming or sedating an animal with a hydroxy benzaldehyde compound” (priority 1996, dated 1997)

How the values were obtained:
mice [1] = experiment: Metrazol-induced seizures in mice (Example 5); format: in vivo; conditions: for Death: Metrazol 90 mg/kg i.p. (vehicle 0/6); for Tonic Convulsion: Metrazol 90 mg/kg i.p. (vehicle 6/6)
Protocol: (§1) Mice were treated with vanillin (100, 200, or 300 mg/kg) or saline (0.9% NaCl) by i.p. injection. The treatment was followed either by injection of pentylenetetrazol ("Metrazol"), 80 or 90 mg/kg by i.p. injection (given 5 minutes after vanillin) or by exposure to a 1-second pulse of shock through electrodes clamped to the ears (5 minutes after vanillin). The end-points for both tests were the occurrence of a tonic (extensor) convulsion and/or death. Six mice were used per group for the Metrazol-induced seizure test, and five mice were used per group for the electroshock-induced seizure test.

mice [2] = experiment: Spontaneous locomotor activity of mice (Example 3); format: in vivo
Protocol: The effect of vanillin on spontaneous locomotor activity of mice was examined. Three groups of male mice, with four mice per group, were assigned to receive a dosage of vanillin of 0, 200 or 300 mg/kg, respectively. After i.p. injection of vanillin or a control solution (0.9% NaCl in water), an injected mouse was placed by itself in a cage, the cage enclosed in a cabinet to exclude external stimuli, and locomotor activity of the mouse was monitored. Three types of movements of the mouse within the cage were measured, based upon interruptions of 16 beams of infrared light, spaced one inch (2.54 cm) apart, which traverse the cage. Interruptions of the infrared beams are detected by sensors and are recorded as "counts" of activity using a system obtained from Omnitech Electronics, Columbus Ohio.
Three types of activity measures were automatically recorded by the system: (1) all interruptions of all beams were recorded as "Total activity counts"; (2) interruptions of two consecutive beams were recorded as "Ambulatory activity counts"; and (3) interruptions of four consecutive beams were recorded as "Gross movements".
The effects of doses of vanillin (200 and 300 mg/kg i.p.) was assessed and compared with locomotor activity recorded for concomitantly tested mice given only vehicle (0.9% NaCl in water). Measurement of locomotor activity was made during 10 minute intervals for 60 minutes after treatment. Due to the relatively short duration of vanillin encountered, the higher dose group also had measurements taken at three minute intervals for 24 minutes and at one minute intervals for nine minutes after treatment.
Means and standard errors of numbers of counts were determined for each experimental group.

rats = conditions: cited from earlier work
mice [3] = experiment: Pentobarbital-induced loss of righting reflex ("sleep") in mice (Example 2); format: in vivo
Protocol: The depressant effect of vanillin on mice was investigated by examining the effect of vanillin on pentobarbital-induced loss of righting reflex. Groups of mice (six to fourteen mice per group) were designated to receive a dose of vanillin of 50, 100, 200 or 300 mg/kg, or a control vehicle (0.9% sodium chloride in water). Fifty (50) mg/kg I.p. (intraperitoneally)injected pentobarbital was administered to each mouse of each group, and each mouse was also concurrently given the dose of vanillin (50, 100, 200 or 300 mg/kg) or the control vehicle, depending on its grouping, by s.c. (subcutaneous) injection.
The effects of vanillin on the onset and duration of "sleep" induced by the pentobarbital were observed. […] Means and standard errors of values for onset and duration of "sleep" were determined for each experimental group. Each vanillin-treated group was compared with its concomitantly tested control group (treated with saline in lieu of vanillin) for evaluating the statistical significance of vanillin effect.

mice [4] = experiment: Electroshock-induced seizures in mice (Example 5); format: in vivo; conditions: vanillin 300 mg/kg i.p.
Protocol: as §1

COc1cc(C=O)ccc1O [vanillin, 4-hydroxy-3-methoxybenzaldehyde]
protection versus Metrazol-induced seizures (mice [1]; 300 mg/kg): some protection | anticonvulsant activity (mice [1]; particularly at higher doses, data of Table 5): some mild anticonvulsant activity | Death (mice [1]; vanillin 200 mg/kg i.p.): 2/6 | Tonic Convulsion (mice [1]; vanillin 200 mg/kg i.p.): 5/6 | Death (mice [1]; vanillin 300 mg/kg i.p.): 0/6 | Tonic Convulsion (mice [1]; vanillin 300 mg/kg i.p.): 1/6 | Gross movements (mice [2]; 200 mg/kg i.p., 0-10 min (control 83 ± 16)): 86 ± 16 counts | Ambulatory activity counts (mice [2]; 200 mg/kg i.p., 0-10 min (control 739 ± 108)): 545 ± 62 counts | Total activity counts (mice [2]; 200 mg/kg i.p., 0-10 min (control 1525 ± 281)): 897 ± 201 counts | Gross movements (mice [2]; 200 mg/kg i.p., 10-20 min (control 41 ± 8)): 43 ± 8 counts | Ambulatory activity counts (mice [2]; 200 mg/kg i.p., 10-20 min (control 461 ± 68)): 291 ± 37 counts | Gross movements (mice [2]; 200 mg/kg i.p., 20-30 min (control 34 ± 13)): 18 ± 13 counts | Ambulatory activity counts (mice [2]; 200 mg/kg i.p., 20-30 min (control 307 ± 76)): 130 ± 85 counts | Total activity counts (mice [2]; 200 mg/kg i.p., 20-30 min (control 582 ± 126)): 481 ± 257 counts | Gross movements (mice [2]; 200 mg/kg i.p., 30-40 min (control 31 ± 11)): 14 ± 11 counts | Ambulatory activity counts (mice [2]; 200 mg/kg i.p., 30-40 min (control 599 ± 224)): 409 ± 276 counts | Total activity counts (mice [2]; 200 mg/kg i.p., 30-40 min (control 635 ± 204)): 410 ± 275 counts | Gross movements (mice [2]; 200 mg/kg i.p., 40-50 min (control 19 ± 14)): 32 ± 13 counts | Ambulatory activity counts (mice [2]; 200 mg/kg i.p., 40-50 min (control 171 ± 103)): 243 ± 67 counts | Total activity counts (mice [2]; 200 mg/kg i.p., 40-50 min (control 268 ± 167)): 413 ± 115 counts | Gross movements (mice [2]; 200 mg/kg i.p., 50-60 min (control 23 ± 8)): 31 ± 8 counts | Gross movements (mice [2]; 300 mg/kg i.p., 0-10 min (control 83 ± 16)): 75 ± 23 counts | Ambulatory activity counts (mice [2]; 300 mg/kg i.p., 0-10 min (control 739 ± 108)): 479 ± 150 counts | Gross movements (mice [2]; 300 mg/kg i.p., 10-20 min (control 41 ± 8)): 57 ± 19 counts | Ambulatory activity counts (mice [2]; 300 mg/kg i.p., 10-20 min (control 461 ± 68)): 298 ± 117 counts | Total activity counts (mice [2]; 300 mg/kg i.p., 10-20 min (control 832 ± 105)): 449 ± 155 counts | Gross movements (mice [2]; 300 mg/kg i.p., 20-30 min (control 34 ± 13)): 37 ± 16 counts | Ambulatory activity counts (mice [2]; 300 mg/kg i.p., 20-30 min (control 307 ± 76)): 245 ± 100 counts | Total activity counts (mice [2]; 300 mg/kg i.p., 20-30 min (control 582 ± 126)): 404 ± 176 counts | Gross movements (mice [2]; 300 mg/kg i.p., 30-40 min (control 31 ± 11)): 38 ± 10 counts | Ambulatory activity counts (mice [2]; 300 mg/kg i.p., 30-40 min (control 599 ± 224)): 270 ± 74 counts | Total activity counts (mice [2]; 300 mg/kg i.p., 30-40 min (control 635 ± 204)): 441 ± 121 counts | Gross movements (mice [2]; 300 mg/kg i.p., 40-50 min (control 19 ± 14)): 21 ± 8 counts | Ambulatory activity counts (mice [2]; 300 mg/kg i.p., 40-50 min (control 171 ± 103)): 244 ± 66 counts | Total activity counts (mice [2]; 300 mg/kg i.p., 40-50 min (control 268 ± 167)): 365 ± 108 counts | Gross movements (mice [2]; 300 mg/kg i.p., 50-60 min (control 23 ± 8)): 12 ± 7 counts | effect on smaller types of motor movements (mice [2]; 200 and 300 mg/kg i.p.): suppressed | effect on gross movements, such as walking (mice [2]; any time, doses up to 300 mg/kg): not significantly affected | persistence of some effect on locomotor activity (mice [2]; i.p.): ≥ 60 min | oral LD50 (rats): 1580 mg/kg | duration of loss of righting reflex (mice [3]; 100 to 300 mg/kg along with pentobarbital): markedly increased and enhanced | effect on barbituate-induced loss of righting reflex (mice [3]; lower dose, 50 mg/kg): appeared to lessen the barbituate effect | Duration of "Sleep" (mean + SEM) (mice [3]; vanillin 50 mg/kg s.c. + pentobarbital 50 mg/kg i.p., * p<0.05 vs control (vehicle 31.0 ± 3.79)): 20.3 ± 1.09 min | Duration of "Sleep" (mean + SEM) (mice [3]; vanillin 100 mg/kg s.c. + pentobarbital 50 mg/kg i.p. (vehicle 36.5 ± 4.67)): 47.6 ± 4.48 min | Onset of "sleep" (mean + SEM) (mice [3]; vanillin 200 mg/kg s.c. + pentobarbital 50 mg/kg i.p. (vehicle 3.5 ± 0.87)): 2.8 ± 0.97 min | Duration of "Sleep" (mean + SEM) (mice [3]; vanillin 200 mg/kg s.c. + pentobarbital 50 mg/kg i.p., ** p<0.001 vs control (vehicle 27.4 ± 3.34)): 62.9 ± 5.05 min | Onset of "sleep" (mean + SEM) (mice [3]; vanillin 300 mg/kg s.c. + pentobarbital 50 mg/kg i.p. (vehicle 4.3 ± 0.97)): 3.3 ± 0.23 min | Duration of "Sleep" (mean + SEM) (mice [3]; vanillin 300 mg/kg s.c. + pentobarbital 50 mg/kg i.p., ** p<0.001 vs control (vehicle 39.6 ± 6.57)): 102.1 ± 5.71 min | Death (mice [4]; 1-second electroshock (vehicle 1/5)): 0/5 | Tonic Convulsion (mice [4]; 1-second electroshock (vehicle 5/5)): 4/5
